Data on 13 compounds can be found in patent US20250019387A1 (Frontier Medicines Corporation, priority 0001, published 2025).

SMILES strings stand for the structures. pIC50: −log10 of the molar value.

KRAS G12C and cRAF (Ras-binding domain) interaction, sequence (P01116 other isoform, or with tags, fused parts or gaps G12C/C51S/C80L/C118S): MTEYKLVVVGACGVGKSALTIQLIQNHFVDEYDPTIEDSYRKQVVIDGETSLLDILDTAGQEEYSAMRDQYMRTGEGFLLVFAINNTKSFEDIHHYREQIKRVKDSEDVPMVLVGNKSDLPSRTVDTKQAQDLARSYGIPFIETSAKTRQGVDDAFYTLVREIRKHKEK

This assay deals with KRAS G12C and cRAF (Ras-binding domain) interaction (Homo sapiens (Human), UniProt P01116, C118S/C51S/C80L/G12C). The experiment in a line: Inhibition of KRAS G12C and cRAF binding (AlphaScreen). To be noted: GMPPNP-loaded KRAS G12C, 19-20 hours incubation with compound; read-out: IC50 (Inhibition of KRAS G12C and cRAF Binding). Summed up:
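IC50 values come from 4-parameter nonlinear regression of AlphaScreen signal (680 nm excitation, 570 nm emission). Compound plates sat 19-20 h at room temperature before RBD and donor/acceptor beads were added in Hepes pH 7.4 buffer with 150 mM NaCl, 5 mM MgCl2, 2% DMSO for 60-90 min; biotin-AviTag-GST replaced RBD to flag assay-technology interferers.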
In general terms: Alpha assays give light when donor and acceptor beads are brought close together.
In general, pIC50 refers to the negative decadic logarithm of the IC50, by convention in mol/L. Take `C#Cc1c(F)ccc2cccc(-c3ncc4c(N(C)[C@@H]5CCN(C(=O)/C=C/CN6CC[C@H](F)C6)C5)nc(OC[C@@]56CCCN5C[C@H](F)C6)nc4c3F)c12` [Example 288, (E)-1-((R)-3-((7-(8-ethynyl-7-fluoronaphthalen-1-yl)-8-fluoro-2-(((2R,7aS)-2-fluorotetrahydro-1H-pyrrolizin-7a(5H)-yl)methoxy)pyrido[4,3-d]pyrimidin-4-yl)(methyl)amino)pyrrolidin-1-yl)-4-((S)-3-fluoropyrrolidin-1-yl)but-2-en-1-one]: the pIC50 is 7.00 to 8.00. Next, `C#Cc1c(F)ccc2cccc(-c3ncc4c(N(C)[C@@H]5CCN(C(=O)/C=C/CN6CC[C@@H](F)C6)C5)nc(OC[C@@]56CCCN5C[C@H](F)C6)nc4c3F)c12` [Example 289, (E)-1-((R)-3-((7-(8-ethynyl-7-fluoronaphthalen-1-yl)-8-fluoro-2-(((2R,7aS)-2-fluorotetrahydro-1H-pyrrolizin-7a(5H)-yl)methoxy)pyrido[4,3-d]pyrimidin-4-yl)(methyl)amino)pyrrolidin-1-yl)-4-((R)-3-fluoropyrrolidin-1-yl)but-2-en-1-one]: 7.00 to 8.00; `C#Cc1c(F)ccc2cccc(-c3ncc4c(N(C)[C@@H]5CCN(C(=O)/C=C/CN6C[C@H]7C[C@@H]6CO7)C5)nc(OC[C@@]56CCCN5C[C@H](F)C6)nc4c3F)c12` [Example 290, (E)-4-((1R,4R)-2-oxa-5-azabicyclo[2.2.1]heptan-5-yl)-1-((R)-3-((7-(8-ethynyl-7-fluoronaphthalen-1-yl)-8-fluoro-2-(((2R,7aS)-2-fluorotetrahydro-1H-pyrrolizin-7a(5H)-yl)methoxy)pyrido[4,3-d]pyrimidin-4-yl)(methyl)amino)pyrrolidin-1-yl)but-2-en-1-one]: more than 8.00; `C#Cc1c(F)ccc2cccc(-c3ncc4c(N(C)[C@@H]5CCN(C(=O)/C=C/CN6C[C@@H]7C[C@H]6CO7)C5)nc(OC[C@@]56CCCN5C[C@H](F)C6)nc4c3F)c12` [Example 291, (E)-4-((1S,4S)-2-oxa-5-azabicyclo[2.2.1]heptan-5-yl)-1-((R)-3-((7-(8-ethynyl-7-fluoronaphthalen-1-yl)-8-fluoro-2-(((2R,7aS)-2-fluorotetrahydro-1H-pyrrolizin-7a(5H)-yl)methoxy)pyrido[4,3-d]pyrimidin-4-yl)(methyl)amino)pyrrolidin-1-yl)but-2-en-1-one]: more than 8.00.

With `C#Cc1c(F)ccc2cccc(-c3ncc4c(N(C)[C@@H]5CCN(C(=O)/C=C/CN6[C@@H]7CC[C@H]6COC7)C5)nc(OC[C@@]56CCCN5C[C@H](F)C6)nc4c3F)c12` [Example 292, (E)-4-((1R,5S)-3-oxa-8-azabicyclo[3.2.1]octan-8-yl)-1-((R)-3-((7-(8-ethynyl-7-fluoronaphthalen-1-yl)-8-fluoro-2-(((2R,7aS)-2-fluorotetrahydro-1H-pyrrolizin-7a(5H)-yl)methoxy)pyrido[4,3-d]pyrimidin-4-yl)(methyl)amino)pyrrolidin-1-yl)but-2-en-1-one], the pIC50 was more than 8.00. Consider `C#Cc1c(F)ccc2cccc(-c3ncc4c(N(C)[C@@H]5CCN(C(=O)/C=C/CN6C7COCC6C7)C5)nc(OC[C@@]56CCCN5C[C@H](F)C6)nc4c3F)c12` [Example 293, (E)-4-(3-oxa-6-azabicyclo[3.1.1]heptan-6-yl)-1-((R)-3-((7-(8-ethynyl-7-fluoronaphthalen-1-yl)-8-fluoro-2-(((2R,7aS)-2-fluorotetrahydro-1H-pyrrolizin-7a(5H)-yl)methoxy)pyrido[4,3-d]pyrimidin-4-yl)(methyl)amino)pyrrolidin-1-yl)but-2-en-1-one], for which the pIC50 is more than 8.00. Next, `Cc1nc(C)c(F)c(/C=C/C(=O)N2CC[C@@H](N(C)c3nc(OC[C@@]45CCCN4C[C@H](F)C5)nc4c(F)c(-c5cccc6ccc(F)c(F)c56)ncc34)C2)n1` [Example 294, (E)-1-((R)-3-((7-(7,8-difluoronaphthalen-1-yl)-8-fluoro-2-(((2R,7aS)-2-fluorotetrahydro-1H-pyrrolizin-7a(5H)-yl)methoxy)pyrido[4,3-d]pyrimidin-4-yl)(methyl)amino)pyrrolidin-1-yl)-3-(5-fluoro-2,6-dimethylpyrimidin-4-yl)prop-2-en-1-one]: 6.30 to 7.00; `Cc1ncc(F)c(/C=C/C(=O)N2CC[C@@H](N(C)c3nc(OC[C@@]45CCCN4C[C@H](F)C5)nc4c(F)c(-c5cccc6ccc(F)c(F)c56)ncc34)C2)n1` [Example 295, (E)-1-((R)-3-((7-(7,8-difluoronaphthalen-1-yl)-8-fluoro-2-(((2R,7aS)-2-fluorotetrahydro-1H-pyrrolizin-7a(5H)-yl)methoxy)pyrido[4,3-d]pyrimidin-4-yl)(methyl)amino)pyrrolidin-1-yl)-3-(5-fluoro-2-methylpyrimidin-4-yl)prop-2-en-1-one]: 7.00 to 8.00; `Cc1cc(/C=C/C(=O)N2CC[C@@H](Nc3nc(OC[C@@]45CCCN4C[C@H](F)C5)nc4c(F)c(-c5cccc6ccc(F)c(F)c56)ncc34)C2)nc(C)n1` [Example 296, (E)-1-((R)-3-((7-(7,8-difluoronaphthalen-1-yl)-8-fluoro-2-(((2R,7aS)-2-fluorohexahydro-1H-pyrrolizin-7a-yl)methoxy)pyrido[4,3-d]pyrimidin-4-yl)amino)pyrrolidin-1-yl)-3-(2,6-dimethylpyrimidin-4-yl)prop-2-en-1-one]: 7.00 to 8.00. The result for `C=CC(=O)N1CC[C@@H](N(C)c2nc(OC[C@@]34CCCN3C[C@H](F)C4)nc3c(F)c(-c4cccc5cccc(C#N)c45)ncc23)C1` [Example 297, 8-(4-(((R)-1-acryloylpyrrolidin-3-yl)(methyl)amino)-8-fluoro-2-(((2R,7aS)-2-fluorotetrahydro-1H-pyrrolizin-7a(5H)-yl)methoxy)pyrido[4,3-d]pyrimidin-7-yl)-1-naphthonitrile] reads 6.30 to 7.00; that for `C#Cc1c(F)ccc2cccc(-c3ncc4c(N(C)[C@@H]5CCN(C(=O)C=C6CN(C)C6)C5)nc(OC[C@@]56CCCN5C[C@H](F)C6)nc4c3F)c12` [Example 298, 1-((R)-3-((7-(8-ethynyl-7-fluoronaphthalen-1-yl)-8-fluoro-2-(((2R,7aS)-2-fluorotetrahydro-1H-pyrrolizin-7a(5H)-yl)methoxy)pyrido[4,3-d]pyrimidin-4-yl)(methyl)amino)pyrrolidin-1-yl)-2-(1-methylazetidin-3-ylidene)ethan-1-one], more than 8.00; that for `CN1CC(=CC(=O)N2CC[C@@H](N(C)c3nc(OC[C@@]45CCCN4C[C@H](F)C5)nc4c(F)c(-c5cccc6ccc(F)c(F)c56)ncc34)C2)C1` [Example 299, 1-((R)-3-((7-(7,8-difluoronaphthalen-1-yl)-8-fluoro-2-(((2R,7aS)-2-fluorotetrahydro-1H-pyrrolizin-7a(5H)-yl)methoxy)pyrido[4,3-d]pyrimidin-4-yl)(methyl)amino)pyrrolidin-1-yl)-2-(1-methylazetidin-3-ylidene)ethan-1-one], more than 8.00.

Turning to `CN1CC(=CC(=O)N2CC[C@@H](N(C)c3nc(OC[C@@]45CCCN4C[C@H](F)C5)nc4c(F)c(-c5cccc6ccc(F)c(Cl)c56)ncc34)C2)C1` [Example 300, 1-((R)-3-((7-(8-chloro-7-fluoronaphthalen-1-yl)-8-fluoro-2-(((2R,7aS)-2-fluorotetrahydro-1H-pyrrolizin-7a(5H)-yl)methoxy)pyrido[4,3-d]pyrimidin-4-yl)(methyl)amino)pyrrolidin-1-yl)-2-(1-methylazetidin-3-ylidene)ethan-1-one], the negative-log IC50 (pIC50) was 7.00 to 8.00.
